# Legend:
# NRK-49F cells [1] = test: Serum (5% FBS)-stimulated activation and kinase phosphorylation in renal interstitial fibroblasts (immunoblot); assay type: cell-based, rat; conditions: 36 h, suramin 100 μM
# Procedure: (§1) Cell Culture and Treatments. NRK-49F cells were cultured in Dulbecco's modified eagle's medium (DMEM) (Sigma-Aldrich, St. Louis, Mo.) containing 5% fetal bovine serum (FBS), 0.5% penicillin and streptomycin in an atmosphere of 5% CO2 and 95% air at 37° C. […] For TGF-β1 treatment, NRK-49F were starved for 24 h by incubation with 0.5% FBS containing DMEM and then exposed to TGF-β1 (0.5-2 ng/ml) for 24 h.
# (§2) Immunoblot Analysis. Immunoblot analysis of NRK-49F cells and tissue samples were conducted as described previously. The densitometry analysis of immunoblot results was conducted by using NIH Image software (National Institutes of Health, Bethesda, Md.).
# NRK-49F cells [2] = test: TGF-β1-induced activation of renal interstitial fibroblasts (immunoblot); assay type: cell-based, rat; conditions: 2 ng/ml TGF-β1, 24 h
# Procedure: as §1, §2
# remnant kidney = test: Remnant kidney model (5/6 nephrectomy), suramin treatment; assay type: in vivo, rat
# Excerpt: The remnant kidney model was created in male Sprague-Dawley rats that weighed 180 to 200 g (Charles River Laboratories, Wilmington, Mass.). 5/6 of normal renal mass was surgically ablated according to our previous protocols. Briefly, 20 animals underwent subtotal nephrectomy involving right subcapsular nephrectomy and infarction of approximately two-thirds of the left kidney by ligation of the posterior and one or two anterior extrarenal branches of the renal artery. In addition, 12 rats underwent a sham operation (laparotomy and manipulation of the renal pedicles). On the second week after surgery, rats were randomly divided into suramin treatment and non-treatment groups. […] 24-hour urine samples were collected in metabolic cages at day 0 and weekly for the determination of urinary levels of protein. Blood was taken weekly for the measurement of serum creatinine. At 28 days after surgery, mean blood pressure was measured, and then all animals were sacrificed and kidneys were collected for further analysis. Assessment of Renal Function and Measurement of Blood Pressure. Urinary protein concentrations were determined by using the colorimetric Lowry assay. Serum creatinine was analyzed using a creatinine kit (Sigma). Mean blood pressure was determined via a catheter inserted into the femoral artery attached to the Transonic Systems pressure transducer (Transonic Systems Inc. Ithaca, N.Y.) in anesthetized rats at the end of experiment. Immunoblot Analysis. Immunoblot analysis of NRK-49F cells and tissue samples were conducted as described previously. The densitometry analysis of immunoblot results was conducted by using NIH Image software (National Institutes of Health, Bethesda, Md.). Immunofluorescent and Immunohistochemical Staining Immunofluorescent and immunohistochemical staining was performed according to the procedure described in our previous studies. For assessment of renal fibrosis, masson trichrome staining was performed according to the protocol provided by the manufacture (Sigma, St. Louis, Mo.). The collagen tissue area (blue color) was quantitatively measured using Image Pro-Plus software (Media-Cybernetics, Silver Spring, Md., USA) by drawing a line around the perimeter of positive staining area, and the average ratio to each microscopic field (400×) was calculated and graphed.
# NRK-49F cells [3] = test: Cleaved PARP and cleaved caspase-3 (apoptosis hallmarks), immunoblot; assay type: cell-based, rat; conditions: 100 μM suramin, 36 h
# Procedure: Cell Culture and Treatments. NRK-49F cells were cultured in Dulbecco's modified eagle's medium (DMEM) (Sigma-Aldrich, St. Louis, Mo.) containing 5% fetal bovine serum (FBS), 0.5% penicillin and streptomycin in an atmosphere of 5% CO2 and 95% air at 37° C. […] Immunoblot Analysis. Immunoblot analysis of NRK-49F cells and tissue samples were conducted as described previously. The densitometry analysis of immunoblot results was conducted by using NIH Image software (National Institutes of Health, Bethesda, Md.).
# obstructive kidney (UUO) = test: UUO obstructive nephropathy model, single dose of suramin immediately after ureteral ligation; assay type: in vivo, mouse
# Procedure: UUO and Remnant Kidney Models and Suramin Treatment. The UUO model was established in male C57 back mice that weighed 20-25 g (Jackson Laboratory, Bar Harbor, Me.) as described in our previous study. Briefly, the abdominal cavity was exposed via a midline incision and the left ureter was isolated and ligated. The contralateral kidney was used as controls. […] Six mice were used in each group.
# as §2
# Immunofluorescent and Immunohistochemical Staining Immunofluorescent and immunohistochemical staining was performed according to the procedure described in our previous studies. For assessment of renal fibrosis, masson trichrome staining was performed according to the protocol provided by the manufacture (Sigma, St. Louis, Mo.). The collagen tissue area (blue color) was quantitatively measured using Image Pro-Plus software (Media-Cybernetics, Silver Spring, Md., USA) by drawing a line around the perimeter of positive staining area, and the average ratio to each microscopic field (400×) was calculated and graphed.
# Quantitative Real-Time PCR. The procedure for quantitative qRT-PCR and the primers used for all measurements have been described previously. Briefly, total RNA from mouse kidney tissue was extracted using RNeasy Kit (QIAGEN, Valencia, Calif.). RNA (1 μg) was reverse transcribed using the AMV First Strand cDNA synthesis kit (Roche Diagnostics Corporation, Indianapolis, Ind.) and random oligodeoxynucleotide primers. Then, real time qRT-PCR amplifications were performed. Relative mRNA abundance was determined from the nanogram ratios of specific mRNA to 18S ribosomal RNA measured in the same samples, and fold change was calculated relative to the group of sham-operated mice with vehicle treatment. Template-free reactions for each pair of primers were also included as controls.
# [4] = 10 mg/kg once per week for two weeks
# [5] = 10 mg/kg once per week for two weeks, from week 2 after surgery
# [6] = 1 mg/kg i.p. single dose, day 7
# [7] = 5 mg/kg i.p. single dose, day 7
# [8] = 10 mg/kg i.p. single dose, day 7
# [9] = 20 mg/kg i.p. single dose, 21 days after UUO injury
compound,measurement,setting,value
Cc1ccc(C(=O)Nc2ccc(S(=O)(=O)O)c3cc(S(=O)(=O)O)cc(S(=O)(=O)O)c23)cc1NC(=O)c1cccc(NC(=O)Nc2cccc(C(=O)Nc3cc(C(=O)Nc4ccc(S(=O)(=O)O)c5cc(S(=O)(=O)O)cc(S(=O)(=O)O)c45)ccc3C)c2)c1 [Suramin],phosphorylation of EGFR,NRK-49F cells [1],complete inhibition
same,phosphorylation of ERK1/2,NRK-49F cells [1],complete inhibition
same,phosphorylation of PDGFR,NRK-49F cells [1],complete inhibition
same,phosphorylation of STAT3,NRK-49F cells [1],complete inhibition
same,serum-induced fibronectin expression,NRK-49F cells [1],complete blockade
same,serum-induced α-SMA expression,NRK-49F cells [1],complete blockade
same,TGF-β1 induced phosphorylation of Smad2,NRK-49F cells [2],abolished
same,TGF-β1 induced phosphorylation of Smad3,NRK-49F cells [2],abolished
same,TGF-β1-induced fibronectin expression,NRK-49F cells [2]; in the presence of suramin,abolished
same,TGF-β1-induced α-SMA expression,NRK-49F cells [2]; in the presence of suramin,suppressed to the basal level
same,de novo expression of fibronectin in the remnant kidney,remnant kidney; [4],abolished
same,de novo expression of α-SMA in the remnant kidney,remnant kidney; [4],abolished
same,increased expression of type 1 collagen in the remnant kidney,remnant kidney; [4],abolished
same,24-hour proteinuria,remnant kidney; [5],significantly reduced
same,serum creatinine,remnant kidney; [5],significantly reduced
same,hypertension (mean blood pressure),"remnant kidney; 10 mg/kg once per week for two weeks, day 28",not significantly affected
same,kidney histology (glomerular and tubulointerstitial damage),"remnant kidney; 10 mg/kg once per week for two weeks, week 4",preserved kidney architecture and prevented the glomerular and tubulointerstitial damage
same,pathological changes in the kidney,remnant kidney; suramin alone-treated (sham-operated) animals,no obvious pathological changes
same,cleavage of caspase-3,NRK-49F cells [3],did not induce cleavage
same,cleavage of poly (ADP-ribose) polymerase (PARP),NRK-49F cells [3],did not induce cleavage
same,fibronectin expression in kidney,obstructive kidney (UUO); [6],slight reduction
same,α-SMA expression in kidney,obstructive kidney (UUO); [6],slight reduction
same,fibronectin expression in kidney,obstructive kidney (UUO); [7],further inhibition
same,α-SMA expression in kidney,obstructive kidney (UUO); [7],further inhibition
same,collagen 1 expression in kidney,"obstructive kidney (UUO); 5 mg/kg single dose, day 7",observed effect
same,fibronectin expression in kidney,obstructive kidney (UUO); [8],complete blockade
same,α-SMA expression in kidney,obstructive kidney (UUO); [8],"significant, but incomplete, suppression"
same,collagen 1 expression in kidney,"obstructive kidney (UUO); 10 mg/kg single dose, day 7",greater inhibition
same,suppression of fibronectin expression in kidney,obstructive kidney (UUO); [9],approximately 50%
same,suppression of α-SMA expression in kidney,obstructive kidney (UUO); [9],approximately 50%
same,EGF receptor phosphorylation,"obstructive kidney (UUO); 20 mg/kg single dose, day 7",abolished
same,ICAM-1 mRNA expression,"obstructive kidney (UUO); 20 mg/kg single dose, day 7",decreased
same,IL-1β mRNA expression,"obstructive kidney (UUO); 20 mg/kg single dose, day 7",decreased
same,PDGF receptor phosphorylation,"obstructive kidney (UUO); 20 mg/kg single dose, day 7",abolished
same,TGF-β1 mRNA expression reduced to (real-time PCR),"obstructive kidney (UUO); 20 mg/kg single dose, day 7",45%
same,TGF-β1 type I receptor mRNA expression,"obstructive kidney (UUO); 20 mg/kg single dose, day 7",suppressed its basal expression
same,TGF-β type II receptor mRNA expression reduced to (real-time PCR),"obstructive kidney (UUO); 20 mg/kg single dose, day 7",94%
same,TNF-α mRNA expression,"obstructive kidney (UUO); 20 mg/kg single dose, day 7",decreased
same,UUO injury-induced phosphorylation of Smad2,"obstructive kidney (UUO); 20 mg/kg single dose, day 7",abolished
same,UUO injury-induced phosphorylation of Smad3,"obstructive kidney (UUO); 20 mg/kg single dose, day 7",abolished
same,collagen 1 expression in kidney,"obstructive kidney (UUO); 20 mg/kg single dose, day 7",reduced its expression to the basal level
same,expression level of total ERK1/2,"obstructive kidney (UUO); 20 mg/kg single dose, day 7",did not affect
same,expression level of total STAT3,"obstructive kidney (UUO); 20 mg/kg single dose, day 7",did not affect
same,expression of total EGF receptor,"obstructive kidney (UUO); 20 mg/kg single dose, day 7",did not have an inhibitory effect
same,expression of total PDGF receptor,"obstructive kidney (UUO); 20 mg/kg single dose, day 7",did not have an inhibitory effect
same,expression of total Smad2,"obstructive kidney (UUO); 20 mg/kg single dose, day 7",not affected
same,expression of total Smad3,"obstructive kidney (UUO); 20 mg/kg single dose, day 7",not affected
same,leukocyte infiltration (naphthol-AS-D-chloroacetate esterase staining),"obstructive kidney (UUO); 20 mg/kg single dose, day 7",reduced leukocyte infiltration to basal levels
same,morphological lesions and interstitial fibrosis (masson trichrome staining),"obstructive kidney (UUO); 20 mg/kg single dose, day 7",obvious attenuation
same,phosphorylation of ERK1/2,"obstructive kidney (UUO); 20 mg/kg single dose, day 7",abolished
same,phosphorylation of STAT3,"obstructive kidney (UUO); 20 mg/kg single dose, day 7",abolished
same,collagen 1 expression in kidney,"obstructive kidney (UUO); 20 mg/kg single dose, day 21",partially suppressed
same,α-SMA expression in kidney,"obstructive kidney (UUO); 20 mg/kg vs 10 mg/kg i.p. single dose, day 7",did not further reduce
same,effective doses of suramin,obstructive kidney (UUO); applicant's UUO and remnant kidney studies,5 to 10 mg/kg
